Results published in patent US20070128217A1 (priority 2003, published 2007).

Columns and labels:
[1] = tested on: rabbit serum obtained by immunizing a rabbit with the SARS-CoV strain Frankfurt 1; assay type: binding; design: Binding of a rabbit serum to linear peptides / Binding of a rabbit serum to looped peptides / Rabbit serum linear peptides / Rabbit serum looped peptides / Binding of a rabbit serum to linear peptides of protein N of SARS-CoV Urbani (Rabbit serum linear peptides) / Binding of a rabbit serum to looped/cyclic peptides of protein N of SARS-CoV Urbani (Rabbit serum looped peptides): unit not given here
[2] = tested on: antibodies in sera from SARS patients (sera 1a, 1b, 2, 6, 37, 62, London, SARS-yellow, SARS-green); assay type: binding, human; design: Binding of serum 6 to linear peptides of protein X1 of SARS-CoV Urbani / Binding of serum 37 to linear peptides of protein X1 of SARS-CoV Urbani / Binding of serum 6 to looped/cyclic peptide (PEPSCAN-ELISA) / Binding of serum 37 to looped/cyclic peptide (PEPSCAN-ELISA) / Binding of serum 37 to looped/cyclic peptides of protein X1 of SARS-CoV Urbani / Binding of serum 6 to linear peptides of protein X2 / Binding of serum 37 to linear peptides of protein X2 / Binding of serum 37 to looped/cyclic peptides of protein X2 of SARS-CoV Urbani / Binding of serum 6 to linear peptides of protein M of SARS-CoV Urbani / Binding of serum 37 to linear peptides of protein M of SARS-CoV Urbani / Binding of serum 6 to looped/cyclic peptides of protein M of SARS-CoV Urbani / Binding of serum 37 to looped/cyclic peptides of protein M of SARS-CoV Urbani / Binding of serum 6 to linear peptides of protein X3 of SARS-CoV Urbani / Binding of serum 37 to linear peptides of protein X3 of SARS-CoV Urbani / Binding of serum 37 to looped/cyclic peptides of protein X3 of SARS-CoV Urbani / Binding of serum 6 to linear peptides of protein X4 of SARS-CoV Urbani / Binding of serum 37 to linear peptides of protein X4 of SARS-CoV Urbani / Binding of serum 37 to looped/cyclic peptides of protein X4 of SARS-CoV Urbani / Binding of serum 6 to linear peptides of protein X5 of SARS-CoV Urbani / Binding of serum 37 to linear peptides of protein X5 of SARS-CoV Urbani / Binding of serum 37 to looped/cyclic peptides of protein X5 of SARS-CoV Urbani / Binding of serum 6 to linear peptides of protein N of SARS-CoV Urbani / Binding of serum 37 to linear peptides of protein N of SARS-CoV Urbani / Binding of serum 6 to linear peptide (PEPSCAN-ELISA) / Binding of serum 1a to looped/cyclic peptides of protein N of SARS-CoV Urbani / Binding of serum 1b to looped/cyclic peptides of protein N of SARS-CoV Urbani / Binding of serum 2 to looped/cyclic peptides of protein N of SARS-CoV Urbani / Binding of serum 6 to looped/cyclic peptides of protein N of SARS-CoV Urbani / Binding of serum 37 to looped/cyclic peptides of protein N of SARS-CoV Urbani / Binding of serum 62 to looped/cyclic peptides of protein N of SARS-CoV Urbani / Binding of serum London to looped/cyclic peptides of protein N of SARS-CoV Urbani / Binding of serum SARS-green to looped/cyclic peptides of protein N of SARS-CoV Urbani: unit not given here
[3] = tested on: control sera (pooled serum of ten healthy LUMC hospital workers; commercial negative donor pooled serum from the Dutch bloodbank); assay type: binding, human; design: Binding of Control serum LUMC to linear peptides / Binding of Control serum Blood-bank to linear peptides / Binding of Control serum LUMC to looped peptides / Binding of Control Serum Blood-Bank to Looped peptides / Binding of Control serum LUMC to linear peptides of the protein M of SARS-CoV Urbani / Binding of Control serum Blood-bank to linear peptides of the protein M of SARS-CoV Urbani / Binding of Control serum LUMC to looped peptides of the protein M of SARS-CoV Urbani / Binding of Control Serum Blood-Bank to Looped peptides of the protein M of SARS-CoV Urbani: unit not given here

Sequence	Binding of a rabbit serum to linear peptides [1]	Binding of a rabbit serum to looped peptides [1]	Binding of serum 1a to linear peptides of protein X1 of SARS-CoV Urbani [2]	Binding of serum 1a to looped/cyclic peptide (PEPSCAN-ELISA) [2]	Binding of serum 1b to linear peptides of protein X1 of SARS-CoV Urbani [2]	Binding of serum 1b to looped/cyclic peptide (PEPSCAN-ELISA) [2]	Binding of serum 2 to linear peptides of protein X1 of SARS-CoV Urbani [2]	Binding of serum 2 to looped/cyclic peptide (PEPSCAN-ELISA) [2]	Binding of serum 6 to linear peptides of protein X1 of SARS-CoV Urbani [2]	Binding of serum 6 to looped/cyclic peptide (PEPSCAN-ELISA) [2]	Binding of serum 37 to linear peptides of protein X1 of SARS-CoV Urbani [2]	Binding of serum 37 to looped/cyclic peptide (PEPSCAN-ELISA) [2]	Binding of serum 62 to linear peptides of protein X1 of SARS-CoV Urbani [2]	Binding of serum London to linear peptides of protein X1 of SARS-CoV Urbani [2]	Binding of serum SARS-green to linear peptides of protein X1 of SARS-CoV Urbani [2]	Binding of serum SARS-yellow to linear peptides of protein X1 of SARS-CoV Urbani [2]	Binding of Control Serum Blood-Bank to Looped peptides [3]	Binding of Control serum Blood-bank to linear peptides [3]	Binding of Control serum LUMC to linear peptides [3]	Binding of Control serum LUMC to looped peptides [3]	other results
KNPLLYDANYFVCWH	0.1	0.7	0.8	0.6	0.5	0.5	0.5	0.4	0.4	0.4	0.6	0.6	0.5	0.3	0.4	0.3	0.6	0.4	0.4	0.7	Binding of serum 62 to looped/cyclic peptide (PEPSCAN-ELISA) [2]: 0.6; Binding of serum London to looped/cyclic peptide (PEPSCAN-ELISA) [2]: 0.2; Binding of serum SARS-green to looped/cyclic peptide (PEPSCAN-ELISA) [2]: 0.3; Binding of serum SARS-yellow to looped/cyclic peptide (PEPSCAN-ELISA) [2]: 0.4
VSPKLFIRQEEVQQE																	0.4	0.5	0.4	0.7	Rabbit serum linear peptides [1]: 0.4; Rabbit serum looped peptides [1]: 0.3; Binding of serum 1a to linear peptides of protein X4 of SARS-CoV Urbani [2]: 0.7; Binding of serum 1a to looped/cyclic peptides of protein X4 of SARS-CoV Urbani [2]: 0.6; Binding of serum 1b to linear peptides of protein X4 of SARS-CoV Urbani [2]: 0.5; Binding of serum 1b to looped/cyclic peptides of protein X4 of SARS-CoV Urbani [2]: 1.0; Binding of serum 2 to linear peptides of protein X4 of SARS-CoV Urbani [2]: 0.3; Binding of serum 2 to looped/cyclic peptides of protein X4 of SARS-CoV Urbani [2]: 0.8; Binding of serum 6 to linear peptides of protein X4 of SARS-CoV Urbani [2]: 0.3; Binding of serum 6 to looped/cyclic peptides of protein X4 of SARS-CoV Urbani [2]: 0.4; Binding of serum 37 to linear peptides of protein X4 of SARS-CoV Urbani [2]: 0.7; Binding of serum 37 to looped/cyclic peptides of protein X4 of SARS-CoV Urbani [2]: 0.9; Binding of serum 62 to linear peptides of protein X4 of SARS-CoV Urbani [2]: 0.7; Binding of serum 62 to looped/cyclic peptides of protein X4 of SARS-CoV Urbani [2]: 0.8; Binding of serum London to linear peptides of protein X4 of SARS-CoV Urbani [2]: 0.8; Binding of serum London to looped/cyclic peptides of protein X4 of SARS-CoV Urbani [2]: 0.6; Binding of serum SARS-green to linear peptides of protein X4 of SARS-CoV Urbani [2]: 0.6; Binding of serum SARS-green to looped/cyclic peptides of protein X4 of SARS-CoV Urbani [2]: 1.2; Binding of serum SARS-yellow to linear peptides of protein X4 of SARS-CoV Urbani [2]: 0.3; Binding of serum SARS-yellow to looped/cyclic peptides of protein X4 of SARS-CoV Urbani [2]: 0.5
DTGIENATFFIFNKL	0.1	0.6	0.7		0.5		0.5		0.4		0.7		0.6	0.4	0.3	0.4	0.7	0.6	0.5	0.9	Binding of serum 1a to looped/cyclic peptides of protein X1 of SARS-CoV Urbani [2]: 0.6; Binding of serum 1b to looped/cyclic peptides of protein X1 of SARS-CoV Urbani [2]: 0.5; Binding of serum 2 to looped/cyclic peptides of protein X1 of SARS-CoV Urbani [2]: 0.6; Binding of serum 6 to looped/cyclic peptides of protein X1 of SARS-CoV Urbani [2]: 0.2; Binding of serum 37 to looped/cyclic peptides of protein X1 of SARS-CoV Urbani [2]: 0.7; Binding of serum 62 to looped/cyclic peptides of protein X1 of SARS-CoV Urbani [2]: 0.6; Binding of serum London to looped/cyclic peptides of protein X1 of SARS-CoV Urbani [2]: 0.2; Binding of serum SARS-green to looped/cyclic peptides of protein X1 of SARS-CoV Urbani [2]: 0.4; Binding of serum SARS-yellow to looped/cyclic peptides of protein X1 of SARS-CoV Urbani [2]: 0.6
IVAALVFLILCFTIK																	0.8	0.6	0.5	0.7	Rabbit serum linear peptides [1]: 0.4; Rabbit serum looped peptides [1]: 0.6; Binding of serum 1a to linear peptides of protein X4 of SARS-CoV Urbani [2]: 0.6; Binding of serum 1a to looped/cyclic peptides of protein X4 of SARS-CoV Urbani [2]: 0.7; Binding of serum 1b to linear peptides of protein X4 of SARS-CoV Urbani [2]: 0.6; Binding of serum 1b to looped/cyclic peptides of protein X4 of SARS-CoV Urbani [2]: 0.4; Binding of serum 2 to linear peptides of protein X4 of SARS-CoV Urbani [2]: 0.4; Binding of serum 2 to looped/cyclic peptides of protein X4 of SARS-CoV Urbani [2]: 0.6; Binding of serum 6 to linear peptides of protein X4 of SARS-CoV Urbani [2]: 0.5; Binding of serum 6 to looped/cyclic peptides of protein X4 of SARS-CoV Urbani [2]: 1.4; Binding of serum 37 to linear peptides of protein X4 of SARS-CoV Urbani [2]: 0.7; Binding of serum 37 to looped/cyclic peptides of protein X4 of SARS-CoV Urbani [2]: 0.7; Binding of serum 62 to linear peptides of protein X4 of SARS-CoV Urbani [2]: 0.7; Binding of serum 62 to looped/cyclic peptides of protein X4 of SARS-CoV Urbani [2]: 0.7; Binding of serum London to linear peptides of protein X4 of SARS-CoV Urbani [2]: 0.7; Binding of serum London to looped/cyclic peptides of protein X4 of SARS-CoV Urbani [2]: 3.0; Binding of serum SARS-green to linear peptides of protein X4 of SARS-CoV Urbani [2]: 0.5; Binding of serum SARS-green to looped/cyclic peptides of protein X4 of SARS-CoV Urbani [2]: 0.5; Binding of serum SARS-yellow to linear peptides of protein X4 of SARS-CoV Urbani [2]: 0.6; Binding of serum SARS-yellow to looped/cyclic peptides of protein X4 of SARS-CoV Urbani [2]: 0.7
YALIYFLQCINACRI	0.1	0.0	0.7	0.2	0.5	0.1	0.5	0.1	0.4	0.0	0.6	0.1	0.6	0.3	0.2	0.4	0.3	0.6	0.6	0.2	Binding of serum 62 to looped/cyclic peptide (PEPSCAN-ELISA) [2]: 0.2; Binding of serum London to looped/cyclic peptide (PEPSCAN-ELISA) [2]: 0.1; Binding of serum SARS-green to looped/cyclic peptide (PEPSCAN-ELISA) [2]: 0.2; Binding of serum SARS-yellow to looped/cyclic peptide (PEPSCAN-ELISA) [2]: 0.0
